Results reported in patent US20170240535A1, “HDAC1/2 INHIBITORS FOR THE TREATMENT OF NEURODEGENERATIVE AND/OR COGNITIVE DISORDERS” (Regenacy Pharmaceuticals, LLC, priority 2016, published 2017).

Columns and labels:
[1] = molecular target: T1, HDAC1 (Homo sapiens, UniProt Q13547); assay: HDAC enzyme assay, HDAC1; format: biochemical; conditions: enzyme and compound incubated 24 hours at room temperature
T1 construct: purchased BPS Biosciences
Protocol: (§1) Compounds for testing were diluted in DMSO to 50 fold the final concentration and a ten point three fold dilution series was made. The compounds were diluted in assay buffer (50 mM HEPES, pH 7.4, 100 mM KCl, 0.001% Tween-20, 0.05% BSA, 20 μM TCEP) to 6 fold their final concentration. The HDAC enzymes (purchased from BPS Biosciences) were diluted to 1.5 fold their final concentration in assay buffer. The tripeptide substrate and trypsin at 0.05 μM final concentration were diluted in assay buffer at 6 fold their final concentration. The final enzyme concentrations used in these assays were 3.3 ng/ml (HDAC1), 0.2 ng/ml (HDAC2) and 0.08 ng/ml (HDAC3). The final substrate concentrations used were 16 μM (HDAC1), 10 μM (HDAC2) and 17 μM (HDAC3). Five μl of compound and 20 μl of enzyme were added to wells of a black, opaque 384 well plate in duplicate. Enzyme and compound were incubated together at room temperature for 24 hours. Five μl of substrate was added to each well, the plate was shaken for 60 seconds and placed into a Victor 2 microtiter plate reader. The development of fluorescence was monitored for 60 min and the linear rate of the reaction was calculated. The IC50 was determined using Graph Pad Prism by a four parameter curve fit.

[2] = Pharmacokinetics in plasma and brain after IV administration; format: in vivo; conditions: IV 1 mg/kg, male C57BL/6 mice
Protocol: Male C57Bl/6 mice were fasted overnight. Compounds of the invention were dissolved in dimethyl acetamide at 10 times the final concentration, then Solutol HS 15 (BASF) was added to a final concentration of 10%. Finally 80% saline was added and vortexed to achieve a clear solution. Fifteen animals were injected via the tail vein with 1 mg/kg compound. Blood was collected via retro orbital puncture into K2EDTA tubes at 5 minutes, 15 minutes, 30 minutes, 1 hour, 2 hours, 4 hours, 8 hours and 24 hours after dosing. The blood was centrifuged at 2000 g for 5 minutes at 4° C. to obtain plasma. The plasma was extracted with acetonitrile and the level of compound was analyzed by LC/MS/MS. The level of compound in plasma was calculated from a standard curve in mouse plasma. For brain levels, animals were sacrificed at 5 minutes, 15 minutes, 1 hour, 4 hours and 24 hours. Brains were removed and homogenized in acetonitrile and extracted. The level of compound in brain was calculated from a standard curve in mouse brain tissue. The IV clearance and area under the curve were calculated using WinNonLin software. The ratio of area under the curve for plasma and brain samples was calculated to produce the brain/plasma ratio.

[3] = Pharmacokinetics of Compound 1 in plasma and brain after IP and PO administration (discrete PK); format: in vivo; conditions: male C57BL/6 mice; for Kp / Cmax / Tmax / half-life / AUC(0-inf) / AUC(0-t): mouse; for Kp: brain/plasma, read-out: AUCbrain/AUCplasma; for half-life: read-out: Terminal t1/2 (converted)
Protocol: Male C57Bl/6 mice were fasted overnight. Compound 1 was dissolved in 20% HydroxyPropyl-β-Cyclodextran in water. Fifteen animals per experimental arm were dosed by intraperitoneal injection or by oral gavage. Blood was collected via retro orbital puncture into K2EDTA tubes at 5 minutes, 15 minutes, 30 minutes, 1 hour, 2 hours, 4 hours, 8 hours and 24 hours after dosing. The blood was centrifuged at 2000 g for 5 minutes at 4° C. to obtain plasma. The plasma was extracted with acetonitrile and the level of compound was analyzed by LC/MS/MS. The level of compound in plasma was calculated from a standard curve in mouse plasma. For brain levels, animals were sacrificed at 15 minutes, 1 hour, 4 hours, 8 hours and 24 hours. Brains were removed and homogenized in acetonitrile and extracted. The level of compound in brain was calculated from a standard curve in mouse brain tissue. The maximum concentration, half-life and area under the curve were calculated using WinNonLin software. The ratio of area under the curve for plasma and brain samples was calculated to produce the brain/plasma ratio.

[4] = system: aged mice; assay: Morris Water Maze, young and aged mice; format: in vivo
Protocol: The ability of HDAC1/2 inhibitor Compound 1 to improve cognitive deficits in aged mice was tested by InterVivo Solutions (Toronto, Canada). Young (3 months old) and aged (18 months old) mice were compared in a Morris Water Maze to measure differences in learning and memory.
Mice were first placed in a pool of water and trained to swim to a visible flagged platform (the cued task). The mice received 3 trails per day for 5 days and the time it took for the mice to find the platform was timed. Young mice and aged mice performed equally well at this task, indicating there was no difference in swimming speed between the two cohorts of mice.
Next, mice were trained in a place task, in which the platform is submerged and hidden with flags to indicate the fixed location of the platform. The mice were trained for 4 days with 3 trials per day.

[5] = molecular target: T2, HDAC2 (Homo sapiens, UniProt Q92769); assay: HDAC enzyme assay, HDAC2; format: biochemical; conditions: enzyme and compound incubated 24 hours at room temperature
T2 construct: purchased BPS Biosciences
T2 sequence (Q92769 whole entry): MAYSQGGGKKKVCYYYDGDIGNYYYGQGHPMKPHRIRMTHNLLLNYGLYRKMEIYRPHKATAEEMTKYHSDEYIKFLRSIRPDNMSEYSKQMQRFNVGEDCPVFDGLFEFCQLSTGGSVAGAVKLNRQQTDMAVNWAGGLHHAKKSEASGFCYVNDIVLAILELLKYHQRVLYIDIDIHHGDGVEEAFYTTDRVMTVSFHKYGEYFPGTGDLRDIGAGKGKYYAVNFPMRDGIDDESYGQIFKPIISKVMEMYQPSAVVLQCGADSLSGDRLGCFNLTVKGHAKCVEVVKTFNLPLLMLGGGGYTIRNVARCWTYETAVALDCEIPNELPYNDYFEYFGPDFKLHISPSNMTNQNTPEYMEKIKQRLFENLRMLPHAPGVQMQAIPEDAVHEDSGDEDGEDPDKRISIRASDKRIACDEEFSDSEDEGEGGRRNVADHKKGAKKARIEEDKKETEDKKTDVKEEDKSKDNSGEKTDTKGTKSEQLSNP
Protocol: as §1

[6] = young mice (3 months old), 10 mg/kg/day, 4 weeks

T1 sequence (Q13547 whole entry): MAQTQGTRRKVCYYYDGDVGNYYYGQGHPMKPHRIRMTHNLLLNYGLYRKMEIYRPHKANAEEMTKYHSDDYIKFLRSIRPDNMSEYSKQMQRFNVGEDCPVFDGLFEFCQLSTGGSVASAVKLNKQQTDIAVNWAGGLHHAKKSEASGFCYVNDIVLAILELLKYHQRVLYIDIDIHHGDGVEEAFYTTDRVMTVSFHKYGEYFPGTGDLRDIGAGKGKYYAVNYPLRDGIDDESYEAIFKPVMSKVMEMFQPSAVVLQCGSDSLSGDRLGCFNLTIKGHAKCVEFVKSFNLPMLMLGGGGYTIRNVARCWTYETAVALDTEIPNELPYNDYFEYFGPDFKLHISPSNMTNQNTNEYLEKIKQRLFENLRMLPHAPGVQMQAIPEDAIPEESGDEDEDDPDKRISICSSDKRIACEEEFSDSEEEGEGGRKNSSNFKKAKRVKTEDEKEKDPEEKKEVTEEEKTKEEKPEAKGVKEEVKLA

Nc1ccc(-c2ccccc2)cc1NC(=O)c1cc2ccc(N3CCNCC3)cc2cn1 [Compound 1]
IC50 [1]: 5 nM
brain penetrance (from brain/plasma AUC ratios) [2]: highly brain penetrant
AUCINF ([2]; brain): 12187 ng·h/g
AUClast ([2]; brain): 10505 ng·h/g
Kp ([2]; mouse, brain/plasma, read-out: AUCbrain/AUCplasma): 4.05
Cmax ([2]; mouse, brain): 675 ng/g
Tmax ([2]; mouse, brain): 1 h
half-life ([2]; mouse, brain): 9.12 h
AUC(0-inf) ([2]; mouse, plasma, PK cassette): 3010 ng·h/mL
AUC(0-t) ([2]; mouse, plasma, PK cassette): 2680 ng·h/mL
MRT inf ([2]; mouse, plasma, PK cassette): 10.4 h
clearance ([2]; mouse, plasma, PK cassette): 5.55 mL/min/kg
half-life ([2]; mouse, plasma, PK cassette): 7.8 h
Vd ([2]; mouse, plasma, PK cassette, read-out: Vss): 3.47 L/kg
brain penetrance (from brain/plasma AUC ratios) ([3]; IP or PO, 3 and 10 mg/kg): highly brain penetrant
AUCINF-brain ([3]; brain, IP 3 mg/kg): 21015 ng·h/g
AUClast-brain ([3]; brain, IP 3 mg/kg): 19737 ng·h/g
AUCINF-brain ([3]; brain, IP 10 mg/kg): 87609 ng·h/g
AUClast-brain ([3]; brain, IP 10 mg/kg): 78978 ng·h/g
AUCINF-brain ([3]; brain, PO 3 mg/kg): 10651 ng·h/g
AUClast-brain ([3]; brain, PO 3 mg/kg): 10019 ng·h/g
AUCINF-brain ([3]; brain, PO 10 mg/kg): 58481 ng·h/g
AUClast-brain ([3]; brain, PO 10 mg/kg): 53716 ng·h/g
Kp ([3]; IP 3 mg/kg): 15.1
Kp ([3]; IP 10 mg/kg): 15.9
Kp ([3]; PO 3 mg/kg): 6.81
Kp ([3]; PO 10 mg/kg): 10.8
Cmax ([3]; brain, IP 3 mg/kg): 1490 ng/g
Tmax ([3]; brain, IP 3 mg/kg): 4 h
half-life ([3]; brain, IP 3 mg/kg): 5.87 h
Cmax ([3]; brain, IP 10 mg/kg): 5320 ng/g
Tmax ([3]; brain, IP 10 mg/kg): 4 h
half-life ([3]; brain, IP 10 mg/kg): 7.13 h
Cmax ([3]; brain, PO 3 mg/kg): 743 ng/g
Tmax ([3]; brain, PO 3 mg/kg): 4 h
half-life ([3]; brain, PO 3 mg/kg): 5.8 h
Cmax ([3]; brain, PO 10 mg/kg): 3650 ng/g
Tmax ([3]; brain, PO 10 mg/kg): 8 h
half-life ([3]; brain, PO 10 mg/kg): 6.76 h
AUC(0-inf) ([3]; plasma, IP 3 mg/kg): 1320 ng·h/mL
AUC(0-t) ([3]; plasma, IP 3 mg/kg): 1310 ng·h/mL
Cmax ([3]; plasma, IP 3 mg/kg): 318 ng/mL
Tmax ([3]; plasma, IP 3 mg/kg): 0.5 h
half-life ([3]; plasma, IP 3 mg/kg): 3.88 h
AUC(0-inf) ([3]; plasma, IP 10 mg/kg): 5040 ng·h/mL
AUC(0-t) ([3]; plasma, IP 10 mg/kg): 4960 ng·h/mL
Cmax ([3]; plasma, IP 10 mg/kg): 1020 ng/mL
Tmax ([3]; plasma, IP 10 mg/kg): 0.25 h
half-life ([3]; plasma, IP 10 mg/kg): 4.2 h
AUC(0-inf) ([3]; plasma, PO 3 mg/kg): 1480 ng·h/mL
AUC(0-t) ([3]; plasma, PO 3 mg/kg): 1470 ng·h/mL
Cmax ([3]; plasma, PO 3 mg/kg): 135 ng/mL
Tmax ([3]; plasma, PO 3 mg/kg): 2 h
half-life ([3]; plasma, PO 3 mg/kg): 3.44 h
AUC(0-inf) ([3]; plasma, PO 10 mg/kg): 5060 ng·h/mL
AUC(0-t) ([3]; plasma, PO 10 mg/kg): 4990 ng·h/mL
Cmax ([3]; plasma, PO 10 mg/kg): 561 ng/mL
Tmax ([3]; plasma, PO 10 mg/kg): 1 h
half-life ([3]; plasma, PO 10 mg/kg): 4.08 h
learning rate in place task ([4]; aged mice (18 months old), 10 mg/kg/day, 4 weeks): learn at a rate greater than the young untreated cohort
performance in place test vs corresponding untreated mice ([4]; young and aged mice, 10 mg/kg/day for 4 weeks): perform better in the place test than the corresponding untreated mice
learning rate in place task [4, 6]: dramatic improvement in learning rate
reduction in escape latency as compared to untreated mice, place task [4, 6]: 25%
IC50 [5]: 13 nM
